1 compound from patent publication US20090233910A1, “Npy antagonists, preparation and uses” (CEREP, priority 2005, published 2009) can be followed below.

In assay [1] the target is T1, human Y4 receptor (Homo sapiens, UniProt P50391).
T1 construct: expressed in transfected cells; host or cells: CHO cells (CHO-Y4H), membrane preparation
Briefly: Binding test to the NPY Y4 receptor ([125I]-human PP, CHO cell membranes). The conditions noted are these: human Y4, [125I]-human PP. The method, then:
(§1) The CHO cells expressing either the Y4 or the Y5 human recombinant receptor are cultured in DMEM medium to which is added 5% dialysed foetal calf serum, 10 mM Hepes buffer and 0.8 g/l sodium bicarbonate. They are lifted from their support using a 36 mM citrate buffer without trypsin and without EDTA, and washed in PBS buffer free of Ca^2+ and of Mg^2+. The cell residues are stored at (−80° C.) until fractioning.
(§2) The cell residue is redissolved in 10 mM TRIS buffer, 3 mM MgCl2, pH 7.4 and separated with polytron. After centrifuging at 20 000×g the residue is redissolved in this same buffer, potter separated and aliquoted for storage in liquid nitrogen to around 5 mg/ml proteins.
(§3) Approximately 80 μg of membranes of CHO cells having stable expression of the human Y4 receptor are incubated for 60 min at 30° C. in 200 μl Krebs-Ringer buffer (pH 7.4) containing 20 mM Hepes, 1% bovine serum albumin, 0.25 mg/ml bacitracin and 0.1 nM of [^125I]-human PP (Pancreatic Polypeptide, Perkin Elmer, NEX 315). The reaction is halted by filtering through Wathman GF/C filters and washing with 3 times 4 ml of buffer at 4° C. The radioactivity deposited on the filter is counted with a gamma counter (Whizard 1470, Wallac, Perkin Elmer). Non-specific binding is determined in the presence of 0.3 μM of human PP (Neosystem, SC104). […]

For assay [2], the target named is T2, human Y5 receptor (Homo sapiens, UniProt Q15761).
T2 construct: expressed in transfected cells; host or cells: CHO cells (CHO-Y5H), membrane preparation
T2 sequence (Q15761 1-445): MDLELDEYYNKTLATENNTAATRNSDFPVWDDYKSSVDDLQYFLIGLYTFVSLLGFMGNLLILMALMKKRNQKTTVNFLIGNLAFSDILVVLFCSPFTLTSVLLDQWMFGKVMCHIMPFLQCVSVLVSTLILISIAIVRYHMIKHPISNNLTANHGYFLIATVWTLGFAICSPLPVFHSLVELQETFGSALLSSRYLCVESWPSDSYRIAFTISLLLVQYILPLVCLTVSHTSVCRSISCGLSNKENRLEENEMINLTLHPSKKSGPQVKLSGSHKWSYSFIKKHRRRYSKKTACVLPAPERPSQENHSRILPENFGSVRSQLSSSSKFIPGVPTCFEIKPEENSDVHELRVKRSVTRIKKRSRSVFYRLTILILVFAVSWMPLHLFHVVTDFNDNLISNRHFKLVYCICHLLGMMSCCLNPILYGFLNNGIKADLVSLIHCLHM
Put plainly: Binding test to the NPY Y5 receptor ([125I]-human PYY, CHO cell membranes). The method, then: as §1, §2
as §3, with “Y5” for “Y4”, “PYY (Perkin” for “PP (Pancreatic Polypeptide, Perkin”, “341).” for “315).”, “porcine NPY” for “of human PP”, “SC116).” for “SC104).”

In assay [3] the target is T3, NPY Y1 receptor (Homo sapiens, UniProt P25929).
T3 construct: host or cells: SK-N-MC cells (whole-cell suspension)
T3 sequence (P25929 1-384): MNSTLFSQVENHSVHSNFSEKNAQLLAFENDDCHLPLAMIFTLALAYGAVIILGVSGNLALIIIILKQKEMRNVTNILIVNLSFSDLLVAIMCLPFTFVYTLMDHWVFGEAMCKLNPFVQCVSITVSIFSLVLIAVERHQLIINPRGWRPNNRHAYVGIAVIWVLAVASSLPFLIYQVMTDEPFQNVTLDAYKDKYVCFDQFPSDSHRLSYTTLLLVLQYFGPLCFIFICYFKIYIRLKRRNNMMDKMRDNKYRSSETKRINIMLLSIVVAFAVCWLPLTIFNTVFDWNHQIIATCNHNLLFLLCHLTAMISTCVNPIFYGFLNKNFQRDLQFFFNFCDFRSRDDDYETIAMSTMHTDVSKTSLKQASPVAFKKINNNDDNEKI
Put plainly: Binding test to the NPY Y1 receptor ([125I]-PYY, SK-N-MC cell suspension). The note with it: SK-N-MC cells, 25 pM [125I]-PYY. The method, then:
The SK-N-MC cells (ATCC HBT10) are cultured at 37° C. in MEM medium (minimum essential medium) free of phenol red (Invitrogen ref. 04194565M) containing 10% foetal calf serum (Invitrogen ref. 10270-106), 1% non-essential aminoacids (Invitrogen ref. 11140-035), 1% sodium pyruvate (Invitrogen ref. 11360-039), 1% glutamine (Invitrogen ref. 25030-032), 100 IU/ml of penicillin and 100 μg/ml of streptomycin (Invitrogen ref. 15140-122) in a humid atmosphere containing 5% CO2.
After aspirating the culture medium, the cells are washed with a phosphate buffer pH 7.4 (Invitrogen ref. 14190-094), then lifted with a Versene solution (Invitrogen, ref 15040-033). The cells are centrifuged at 500×g for 10 minutes at 4° C. then resuspended in a freeze buffer pH 7.4 containing 50 mM HEPES (N-2-hydroxyethylpiperazine-N′-2-ethanesulfonic acid), 145 mM sodium chloride, 2.6 mM calcium chloride, 1 mM magnesium chloride, 10 mM glucose, and 1 mg/ml bovine albumin. The cell suspension is aliquoted into twenty million cells per milliliter of buffer and stored at −70° C.
The cell suspension is incubated 2 hours at 37° C. in an incubation buffer pH 7.4 containing 50 mM HEPES, 2.5 mM calcium chloride, 1 mM magnesium chloride, 0.025% sodium azide, 1 mg/ml bovine albumin and 25 pM [^125I]-PYY (Perkin Elmer, NEX341). The reaction is halted by filtering through a GF/B filter pre-treated with 0.3% PEI, and washed three times with 1 ml of 50 mM TRIS buffer [tris(hydroxymethyl)aminomethane]/HCl, pH 7.4. The radioactivity deposited on the filter is measured by liquid scintillation count (TopCount, Packard). Non-specific binding is determined in the presence of 1 μM NPY (Bachem, H3322). Results are expressed as IC50 values in nM calculated by non-linear regression with 4 parameters.

Usually IC50 stands for the point on the concentration scale where inhibition reaches its midpoint. A high value points to a need for much substance.

T1 sequence (P50391 whole entry): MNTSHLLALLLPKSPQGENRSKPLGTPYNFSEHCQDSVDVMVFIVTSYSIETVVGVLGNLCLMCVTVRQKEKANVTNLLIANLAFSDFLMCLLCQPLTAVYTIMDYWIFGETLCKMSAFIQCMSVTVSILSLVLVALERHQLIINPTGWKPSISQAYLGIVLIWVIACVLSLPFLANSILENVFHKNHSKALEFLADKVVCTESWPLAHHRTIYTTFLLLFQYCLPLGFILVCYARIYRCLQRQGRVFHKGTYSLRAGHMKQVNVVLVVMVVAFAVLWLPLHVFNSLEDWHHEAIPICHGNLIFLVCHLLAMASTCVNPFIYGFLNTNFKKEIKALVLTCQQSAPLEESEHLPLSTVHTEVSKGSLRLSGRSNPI

Consider `CCCCN1CCC(Oc2ccc(C(=O)Nc3ccc(Oc4ccc(NC(=O)NC(CC)CC)cc4OC)cc3)cc2)CC1` [Example 103, 4-(1-Butyl-piperidin-4-yloxy)-N-(4-{4-[3-(1-ethyl-propyl)-ureido]-2-methoxy-phenoxy}-phenyl)-benzamide], for which the IC50 is 2620 nM in assay [1]; above 10000 nM in assay [2] (CHO membranes, human Y5, [125I]-human PYY); 0.0018 µM in assay [3]. Besides, the inhibition at 10 µM in assay [2] (inhibition of specific binding at 10 μM of compound, read-out: % Inh at 10 μM Y5) turned out to be 0%.
